The results in this text go back to US9402847B2, “Combinations comprising (S)-4-amino-N-(1-(4-chlorophenyl)-3-hydroxypropyl)-1-(7H-pyrrolo[2,3-d]pyrimidin-4-yl)piperidine-4-carboxamide” (AstraZeneca AB, priority 2011, dated 2016).

The test system of one test is BT474c model. The test can be described thus: BT474c tumour xenograft in nude mice, tumour volume by calipers. Format: in vivo. The method, then:
(§1) Tumour cells were implanted subcutaneously into the flank of nude mice, then a tumour was allowed to grow in each mouse until it reached the desired starting volume for the particular experiment (approximately 0.6 cm^3 for the BT474c experiment, and approximately 0.15 cm^3 for the HCC-1187 experiment). The mice were then randomised into groups—each group destined to receive one of the four treatment regimes described in each of FIGS. 1 and 2. The mice were then dosed as described in FIGS. 1 and 2, where docetaxel was administered intravenously, and Compound (I) (as the free base) was administered orally. Calipers were used to monitor tumour sizes during these experiments, and the results are plotted on the graphs of FIGS. 1 and 2.
(§2) The BT-474 tumour cell line (human mammary carcinoma) was obtained from Dr Jose Baselga (at Laboratorio Recerca Oncologica, Paseo Vall D'Hebron 119-129, Barcelona 08035, Spain). This cell line was subcloned and a certain population referred herein to as BT474c was obtained. The HCC-1187 cell line is available from ATCC (www.atcc.org).

Test [1] has as its system HCC-1187 breast cancer xenografts. The test can be described thus: HCC-1187 breast cancer xenografts in nude mice, tumour volume by calipers. Format: in vivo. Particulars: for efficacy of combination versus docetaxel monotherapy: AZD5363 300 mg/kg once daily, 4 days on, 3 days off, 3 weekly cycles. How it is done: In these experiments the indicated agent(s) where being administered in 2 weekly dosage cycles, then there was no dosing in the 3rd week (days 15-21 inclusive). The indicated agent(s) were again administered in further weekly dosage cycles from week 4 onwards.
Animals were dosed with compounds over a 3 week period (3 weekly cycles of docetaxel and 3 weekly cycles of AZD5363 300 mg/kg once daily, 4 days on, 3 days off). […] Following the 3 weekly cycles of treatment, animals were not treated with compound, and recovery of tumour growth was monitored.
as §1, §2

As to `NC1(C(=O)N[C@@H](CCO)c2ccc(Cl)cc2)CCN(c2ncnc3[nH]ccc23)CC1` [Compound (I), (S)-4-amino-N-(1-(4-chlorophenyl)-3-hydroxypropyl)-1-(7H-pyrrolo[2,3-d]pyrimidin-4-yl)piperidine-4-carboxamide], in the test with BT474c model (BT474c model, single dose of docetaxel), the sensitisation to docetaxel entry is “greatly sensitise”. The “effect at regulating tumour volume, combination compared with either component alone” value with BT474c model (Compound (I) in combination with docetaxel) was “more than an additive effect”. In the test with BT474c model (FIG. 1, BT474c model, 16-day period, Compound (I) free base orally in combination with docetaxel intravenously), the “change in tumour volume” value is listed as “significant tumour shrinkage”. Besides, the “antitumour activity, intermittent versus continuous schedule of Compound (I)” value in test [1] (FIG. 2, HCC-1187 model, 55-day period, in combination with weekly cycles of docetaxel) was “similarly sustained antitumour activity”. Also, the “efficacy of combination versus docetaxel monotherapy” value in test [1] (FIG. 3, docetaxel administered 24 hours after the final dose of AZD5363) is given as “antagonistic”; in test [1] (FIG. 3, docetaxel dosed 1 hour (same day) before first administration of AZD5363), “greater efficacy than docetaxel monotherapy”; in test [1] (FIG. 3, docetaxel dosed 24 hours (day before) before first administration of AZD5363) it was “greater efficacy than docetaxel monotherapy”. Also, the “tumour growth delay after the 3 weekly cycles of treatment” value in test [1] (FIG. 3, docetaxel administered 1 hour before AZD5363, compared with the other schedules investigated) is “longest tumour growth delay”.
